In patent US8796289B2 (AbbVie Inc., priority 2011, dated 2014):

Biological target: GST-tagged-Wee1 kinase (Homo sapiens, UniProt P30291)
Assay: Wee1 time-resolved fluorescence equilibrium binding assay (displacement of Oregon Green-labeled ATP-competitive kinase probe)
Procedure: Wee1 kinase was assayed using a time-resolved fluorescence equilibrium binding assay monitoring displacement of a rapidly reversible Oregon Green-labeled ATP-competitive kinase probe (N-(2-(2-(2-(4-(4-(5-chloro-4-(2-(1-hydroxycyclobutyl)thiazol-5-yl)-1H-pyrrolo[2,3-b]pyridin-2-yl)phenyl)piperazin-1-yl)ethoxy)ethoxy)ethyl)-2′,7′-difluoro-3′,6′-dihydroxy-3-oxo-3H-spiro[isobenzofuran-1,9′-xanthene]-5-carboxamide) by competitive Wee1 inhibitors.

Sequence of GST-tagged-Wee1 kinase (P30291 whole entry): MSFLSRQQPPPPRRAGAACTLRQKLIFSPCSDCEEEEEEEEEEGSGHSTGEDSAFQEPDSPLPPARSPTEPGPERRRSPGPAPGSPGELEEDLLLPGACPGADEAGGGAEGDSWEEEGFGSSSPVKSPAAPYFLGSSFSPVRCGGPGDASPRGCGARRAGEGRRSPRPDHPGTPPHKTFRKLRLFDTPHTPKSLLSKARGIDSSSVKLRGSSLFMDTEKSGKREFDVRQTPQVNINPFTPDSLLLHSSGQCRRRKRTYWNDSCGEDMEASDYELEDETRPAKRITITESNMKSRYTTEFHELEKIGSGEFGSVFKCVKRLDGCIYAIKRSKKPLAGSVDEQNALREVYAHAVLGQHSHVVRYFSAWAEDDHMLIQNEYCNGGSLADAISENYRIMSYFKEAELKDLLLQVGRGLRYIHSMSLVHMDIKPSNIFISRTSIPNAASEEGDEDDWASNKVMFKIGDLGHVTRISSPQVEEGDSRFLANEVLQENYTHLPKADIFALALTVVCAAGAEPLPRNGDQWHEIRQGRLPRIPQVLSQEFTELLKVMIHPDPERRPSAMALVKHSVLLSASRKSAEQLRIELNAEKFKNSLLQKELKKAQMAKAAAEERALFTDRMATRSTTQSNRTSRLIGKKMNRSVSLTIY

Ki [nM] | SMILES
0.4 | Cc1nn(-c2c(Cl)cncc2Cl)c(=O)c2cnc(Nc3ccc4c(c3)CNCC43CC3)nc12 [Example 447, 6-(3,5-dichloropyridin-4-yl)-2-(2′,3′-dihydro-1′H-spiro[cyclopropane-1,4′-isoquinolin]-7′-ylamino)-8-methylpyrimido[4,5-d]pyridazin-5(6H)-one]
0.5 | Cc1nn(-c2c(Cl)cncc2Cl)c(=O)c2cnc(Nc3ccc4c(c3)CCNC4)nc12 [Example 448, 6-(3,5-dichloropyridin-4-yl)-8-methyl-2-(1,2,3,4-tetrahydroisoquinolin-6-ylamino)pyrimido[4,5-d]pyridazin-5(6H)-one]
0.55 | CC(=O)N1CCc2cc(Nc3ncc4c(=O)n(-c5c(Cl)cccc5Cl)nc(C)c4n3)ccc2C1 [Example 449, 2-[(2-acetyl-1,2,3,4-tetrahydroisoquinolin-6-yl)amino]-6-(2,6-dichlorophenyl)-8-methylpyrimido[4,5-d]pyridazin-5(6H)-one]
0.61 | Cc1nn(-c2c(Cl)cccc2Cl)c(=O)c2cnc(Nc3ccc4c(c3)CCN(S(C)(=O)=O)C4)nc12 [Example 450, 6-(2,6-dichlorophenyl)-8-methyl-2-{[2-(methylsulfonyl)-1,2,3,4-tetrahydroisoquinolin-6-yl]amino}pyrimido[4,5-d]pyridazin-5(6H)-one]
0.19 | Cc1nn(-c2c(Cl)cccc2Cl)c(=O)c2cnc(Nc3ccc4c(c3)CNC4)nc12 [Example 451, 6-(2,6-dichlorophenyl)-2-(2,3-dihydro-1H-isoindol-5-ylamino)-8-methylpyrimido[4,5-d]pyridazin-5(6H)-one]
0.16 | Cc1nn(-c2c(Cl)cccc2Cl)c(=O)c2cnc(Nc3ccc4c(c3)CCNC4(C)C)nc12 [Example 452, 6-(2,6-dichlorophenyl)-2-[(1,1-dimethyl-1,2,3,4-tetrahydroisoquinolin-6-yl)amino]-8-methylpyrimido[4,5-d]pyridazin-5(6H)-one]
0.36 | Cc1nn(-c2c(Cl)cccc2Cl)c(=O)c2cnc(Nc3ccc4c(c3)CCN(C)C4(C)C)nc12 [Example 453, 6-(2,6-dichlorophenyl)-8-methyl-2-[(1,1,2-trimethyl-1,2,3,4-tetrahydroisoquinolin-6-yl)amino]pyrimido[4,5-d]pyridazin-5(6H)-one]
1.2 | Cc1nn(-c2c(Cl)cccc2Cl)c(=O)c2cnc(Nc3ccc(CN4CCN(C)CC4)cc3)nc12 [Example 454, 6-(2,6-dichlorophenyl)-8-methyl-2-({4-[(4-methylpiperazin-1-yl)methyl]phenyl}amino)pyrimido[4,5-d]pyridazin-5(6H)-one]
0.5 | Cc1nn(-c2c(Cl)cccc2Cl)c(=O)c2cnc(Nc3ccc(C4CCCN4)cc3)nc12 (stereo not shown) [Example 455, 6-(2,6-dichlorophenyl)-8-methyl-2-{[4-(pyrrolidin-2-yl)phenyl]amino}pyrimido[4,5-d]pyridazin-5(6H)-one]
0.5 | Cc1nn(-c2c(Cl)cccc2Cl)c(=O)c2cnc(Nc3ccc(C4CCN(C)CC4)cc3)nc12 [Example 456, 6-(2,6-dichlorophenyl)-8-methyl-2-{[4-(1-methylpiperidin-4-yl)phenyl]amino}pyrimido[4,5-d]pyridazin-5(6H)-one]
0.28 | Cc1nn(-c2c(Cl)cccc2Cl)c(=O)c2cnc(Nc3ccc(N4C[C@H]5C[C@@H]4CN5)cc3)nc12 [Example 457, 2-({4-[(1R,4R)-2,5-diazabicyclo[2.2.1]hept-2-yl]phenyl}amino)-6-(2,6-dichlorophenyl)-8-methylpyrimido[4,5-d]pyridazin-5(6H)-one]
0.23 | Cc1nn(-c2c(Cl)cccc2Cl)c(=O)c2cnc(Nc3ccc(C4CCNCC4)cc3)nc12 [Example 458, 6-(2,6-dichlorophenyl)-8-methyl-2-{[4-(piperidin-4-yl)phenyl]amino}pyrimido[4,5-d]pyridazin-5(6H)-one]
0.17 | Cc1nn(-c2c(Cl)cccc2Cl)c(=O)c2cnc(Nc3ccc(C4CCCNC4)cc3)nc12 (stereo not shown) [Example 459, 6-(2,6-dichlorophenyl)-8-methyl-2-{[4-(piperidin-3-yl)phenyl]amino}pyrimido[4,5-d]pyridazin-5(6H)-one]
